The values below come from the OligoGym collection.

“And” between values parts separate entries of the source, which are not always exact repeats. Identical values can stand only once. After the bases stand the sugars from the 5' end (letter, count) and the backbone: PS all phosphorothioate, else s phosphorothioate and o phosphodiester by linkage. Methylation of C is not given here. k = constrained ethyl (cEt); d = 2'-deoxy (DNA)

In this data set the target is MALAT1. The note with it: ASO, A431, 0.005 µM.

As for TGTAAACCTGTGGTGG (sugars k3 d10 k3, PS), the target mRNA inhibition amounted to 48%. The same measure for GAAGAATACCATCTGA (sugars k3 d10 k3, PS): 5%; for GCAGGGACGGTTGAGA (sugars k3 d10 k3, PS): 8%. The figure for TTGGCACACTGGCATG (sugars k3 d10 k3, PS) is 24%; for GACCCTACTGAAGAGC (sugars k3 d10 k3, PS) it is 32%. On to GTGTAAAACATTGCCT (sugars k3 d10 k3, PS), for which the target mRNA inhibition came to 0%. The same measure for AGATTCCGTAACTTTA (sugars k3 d10 k3, PS): 78% and 92%; for CCACTCTAAGATTGTA (sugars k3 d10 k3, PS): 40%; for CAACCCACCAAAGACC (sugars k3 d10 k3, PS): 2%. For the sequence CATTAAGTTGGTAATT (sugars k3 d10 k3, PS), the target mRNA inhibition worked out at 12%. The same measure for CTGCCTCAATGCCTAC (sugars k3 d10 k3, PS): 44%; for TTATCTGCGGTTTCCT (sugars k3 d10 k3, PS): 45%; for ACCTGGAATGGCCAGC (sugars k3 d10 k3, PS): 21%.

For the sequence CCTGAAAAAGTCTTAG (sugars k3 d10 k3, PS), the target mRNA inhibition came to 28%. TTCCACAGACCTCAAC (sugars k3 d10 k3, PS): the target mRNA inhibition was -4%. The figure for CAGAAGCCCCTGCGCT (sugars k3 d10 k3, PS) is 3%. The same measure for CAGTAGGGCTTCTCAA (sugars k3 d10 k3, PS): 10%; for CGCCGCAGGGATTTGA (sugars k3 d10 k3, PS): 19%; for TCTGAAGAATACCATC (sugars k3 d10 k3, PS): 15%.

For ATCCCCCCCAAGATTG (sugars k3 d10 k3, PS), the target mRNA inhibition is 5%.

For CCTTCTATTGGTATTA (sugars k3 d10 k3, PS), the target mRNA inhibition is 28%.

Take TCCTGCATGTAAGAAT (sugars k3 d10 k3, PS): the target mRNA inhibition came to 15%. The same measure for CTTGAATTACTTCCGT (sugars k3 d10 k3, PS): 56% and 40%; for AACTAAATCATTGGGA (sugars k3 d10 k3, PS): -1%; for AGAACTGCTCTAGTTT (sugars k3 d10 k3, PS): -6%. The same measure for TAAGTTGGTAATTACT (sugars k3 d10 k3, PS): 17%; for CCAACTAATTGCCAAT (sugars k3 d10 k3, PS): 40%; for AGCTGAACTATCACAA (sugars k3 d10 k3, PS): 5%. In the case of CTACACAATTTACATC (sugars k3 d10 k3, PS), the target mRNA inhibition is 22%. On to CTTCGGATGCTTCACT (sugars k3 d10 k3, PS), for which the target mRNA inhibition was 33%. The figure for TATGGAACTTGAATGC (sugars k3 d10 k3, PS) is 24%.

For CCCCACGGCCCGCACG (sugars k3 d10 k3, PS), the target mRNA inhibition is -9%. The figure for AATCCCCTAGGGAAGG (sugars k3 d10 k3, PS) is 5%; for ACCCAGCATTACAGTT (sugars k3 d10 k3, PS) it is 8%; for ACCTTAGGATAATAGC (sugars k3 d10 k3, PS) it is 39%. The same measure for CTCCAATGGACATCTC (sugars k3 d10 k3, PS): 29%.

Regarding CTGCAGTTTCTATAGT (sugars k3 d10 k3, PS), the target mRNA inhibition amounted to 22%.

On to TACTCTGATCATAATC (sugars k3 d10 k3, PS), for which the target mRNA inhibition turned out to be 17%. The figure for TCTCTAACCCAGTTTG (sugars k3 d10 k3, PS) is 16%. The same measure for TGAAGAATACCATCTG (sugars k3 d10 k3, PS): 30%; for TCCCACCCAGCATTAC (sugars k3 d10 k3, PS): 27%; for TCTAGACAGACCTAAG (sugars k3 d10 k3, PS): -6%.

For ACATGCCAGTTACTCC (sugars k3 d10 k3, PS), the target mRNA inhibition was found to be 39%.

For the sequence TCTACCGTTTTTCAGC (sugars k3 d10 k3, PS), the target mRNA inhibition stood at 26%. The figure for CTCTCATTTATTTCGG (sugars k3 d10 k3, PS) is 59% and 84%; for CAGCACGGGCTGTCTG (sugars k3 d10 k3, PS) it is -33%; for ACCACAACAATTTAGA (sugars k3 d10 k3, PS) it is -10%.

On to CGGCCCGCACGGAAAT (sugars k3 d10 k3, PS), for which the target mRNA inhibition is 24%.

Consider AACTCCAAGAACTAGC (sugars k3 d10 k3, PS), for which the target mRNA inhibition worked out at 30%. As for CAAATCGCCATGGAAA (sugars k3 d10 k3, PS), the target mRNA inhibition was found to be 14%. The figure for CCCACCCTCTAAGAGA (sugars k3 d10 k3, PS) is -4%.

For AATCACCTACAACTTT (sugars k3 d10 k3, PS), the target mRNA inhibition was 26%.

Regarding ACTATATTTAAGGCCT (sugars k3 d10 k3, PS), the target mRNA inhibition stood at 40%. The figure for GTGAGAACTGCTCTAG (sugars k3 d10 k3, PS) is 36%; for GGCCTTTTCTAACATA (sugars k3 d10 k3, PS) it is 2%. Take GATGTATATAGTTCAA (sugars k3 d10 k3, PS): the target mRNA inhibition stood at 7%. With GGATTCTAGACAGACC (sugars k3 d10 k3, PS), the target mRNA inhibition turned out to be 44%. Regarding GGACTTTCTCCCCCAA (sugars k3 d10 k3, PS), the target mRNA inhibition was -5%. Turning to TAAATTGGTTACCAAT (sugars k3 d10 k3, PS), the target mRNA inhibition was found to be 25%. ACTATTTCTCCAGGAC (sugars k3 d10 k3, PS): the target mRNA inhibition was 20%. The figure for TTCAGACAAGATTCAT (sugars k3 d10 k3, PS) is 51% and 37%.

For the sequence ATCAAACACTGGTTCC (sugars k3 d10 k3, PS), the target mRNA inhibition was found to be 48%. The figure for ATAACAAGTTTAAGGG (sugars k3 d10 k3, PS) is 41%; for TTTTAAACGGGTCATC (sugars k3 d10 k3, PS) it is 17%.

As for AGCCAAGCCGCCTGCT (sugars k3 d10 k3, PS), the target mRNA inhibition was found to be 20%. Regarding GCAGAGTTTGAGTGGT (sugars k3 d10 k3, PS), the target mRNA inhibition was -9%. Take CTTTATCACTCAGCTG (sugars k3 d10 k3, PS): the target mRNA inhibition was determined as 37%. The figure for TTCTATAGTCTGAAGA (sugars k3 d10 k3, PS) is 14%. The same measure for GCTGCATCGAGGTGAG (sugars k3 d10 k3, PS): 24%; for CCACCAAAGACCTCGA (sugars k3 d10 k3, PS): 27%; for CTACTGAAGAGCATTG (sugars k3 d10 k3, PS): 22%. The figure for CCATTACGCAACTGAG (sugars k3 d10 k3, PS) is 12%; for GCACTCATATGCAATT (sugars k3 d10 k3, PS) it is 6%; for TCCGTTACGAAAGTCC (sugars k3 d10 k3, PS) it is 64% and 59% and 50%.

Take ATTCTAATAGCAGCGG (sugars k3 d10 k3, PS): the target mRNA inhibition is 32%. The same measure for TCTGGAAAAGCTAGGG (sugars k3 d10 k3, PS): -21%.

With CTCTGCAGTTTCTATA (sugars k3 d10 k3, PS), the target mRNA inhibition amounted to 31%.

Take TTCTAGACAGACCTAA (sugars k3 d10 k3, PS): the target mRNA inhibition came to 29%. The figure for GAGAAATCGGAGCAGC (sugars k3 d10 k3, PS) is 15%; for TTTAAGCCTTCGGTGC (sugars k3 d10 k3, PS) it is 13%. The figure for GCCAACAGCACAGCGG (sugars k3 d10 k3, PS) is 8%. The same measure for CACCTGGGTCAGCTGT (sugars k3 d10 k3, PS): 25%; for TAATCATACTCCAGTC (sugars k3 d10 k3, PS): -3%; for ATAGACCCCTGACTTT (sugars k3 d10 k3, PS): 34%. Consider AACGAAGAGATACCTG (sugars k3 d10 k3, PS), for which the target mRNA inhibition came to 12%.

With AGCTCCTGACAAATTA (sugars k3 d10 k3, PS), the target mRNA inhibition came to 15%.

In the case of ATTACTCTTGATCTTG (sugars k3 d10 k3, PS), the target mRNA inhibition was 71% and 56%. The same measure for TGATAGTTCAGGGCTT (sugars k3 d10 k3, PS): 9%. The figure for CACTCCCAATTAATCT (sugars k3 d10 k3, PS) is 8%; for CCTCTAAGAGACATTC (sugars k3 d10 k3, PS) it is 29%. As to AAACTTGCTTACACAC (sugars k3 d10 k3, PS), the target mRNA inhibition was found to be 25%.

For AACCTTCATGACCCTA (sugars k3 d10 k3, PS), the target mRNA inhibition worked out at 20%. As for CTAAATACCACCACCT (sugars k3 d10 k3, PS), the target mRNA inhibition turned out to be 12%. The same measure for CCCAAAAGCCCTCTCA (sugars k3 d10 k3, PS): 12%; for ACAATCAAGTCAAGCT (sugars k3 d10 k3, PS): 15%; for TACAACACCCGGAAAT (sugars k3 d10 k3, PS): 16%. The same measure for GCTGGTTATGACTCAG (sugars k3 d10 k3, PS): 9%; for AATGCTAGTCCTCAGG (sugars k3 d10 k3, PS): 57% and 78%. As to TCCATTACGCAACTGA (sugars k3 d10 k3, PS), the target mRNA inhibition was determined as 9%.
